26 compounds from patent publication US20240059712A1, “BIFUNCTIONAL COMPOUNDS AND PHARMACEUTICAL USES THEREOF” (priority 2022, published 2024) can be followed below.

This experiment deals with T1, KRAS^G12D protein (Homo sapiens, UniProt P01116, G12D).
T1 construct: host or cells: Aspc-1 (AsPC-1) cells
Description: Protein degradation study (western blot) in Aspc-1 cells. It is filed as cell-based. Particulars: for inhibition at 0.001 µM / inhibition at 0.1 µM / inhibition at 1 µM / inhibition at 0.005 µM / inhibition at 0.05 µM: ASPC1, 24 h, 24 hours; for inhibition at 0.001 µM: Aspc-1 cells treated with 1 nM compound; for inhibition at 0.001 µM / inhibition at 0.005 µM / inhibition at 0.05 µM: read-out: Rate of degradation; for inhibition at 0.1 µM: Aspc-1 cells treated with 0.1 μM compound; for inhibition at 0.1 µM / inhibition at 1 µM: read-out: Rate of protein degradation; for inhibition at 1 µM: Aspc-1 cells treated with 1 μM compound; for DC50: Aspc-1 cells, half-maximum degradation concentration, read-out: DC50 of compounds induced Ras G12D protein degradation; for inhibition at 0.005 µM: Aspc-1 cells treated with 0.005 μM compound; for inhibition at 0.05 µM: Aspc-1 cells treated with 50 nM compound. As to the method: Aspc-1 (Cobioer, CBP60546) cells in exponential growth phase were inoculated on a 6-well cell culture plate (Corning, 3516) at density of 1E6/well; and cells in the plate were cultured in 37° C. incubator containing 5%-carbon dioxide. The next day, testing compounds were dissolved in DMSO (Sigma, RNBF5902) for the preparation of a 10-mM concentration stock solution. The stock solution was diluted with complete medium (RPMI-1640 supplemented with 10% fetal bovine serum, 1% penicillin-streptomycin), yielding working solutions of various concentrations. The plate, after the addition of compounds, was placed in a 5% carbon dioxide incubator, and incubated at 37° C. for 24 hours (final DMSO concentration was 0.1%). The plate was then removed from the incubator, and the cells were washed twice with precooled PBS (Gibco, 14190250), followed by addition of 80-μL RIPA lysis buffer (containing protease inhibitor (Invitrogen™, AM2696)) to each well. The adherent cells were scraped off with a cell scraper, and the cell lysate was transferred to a 1.5-mL centrifuge tube followed with a 30-minute incubation on ice. The lysate was then clarified with centrifugation at 14000 rpm for 10 min at 4° C. The supernatant was transferred into a new 1.5-mL centrifuge tube, and protein concentration was measured with BCA protein detection kit (Thermo Fisher, 23225). G12D protein level was assessed by western blot.
A mixture of cell lysate (40 μL) and loading buffer (10 μL, 5×SDS (Beyotime, P0015L)) was denatured in a water-bath at 95° C. for 10 min. The denatured protein sample, at 30 μL/well, was loaded into corresponding well of 4-20% Bis-Tris gel (Kingsley, M00656). Protein samples were initially electrophoresed at 80 V for 30 minutes, followed by 120 V for 40 minutes, until the bromophenol blue strip ran to an appropriate position. After electrophoresis, iBlot2 (Life Technologies, IB21001) was used to transfer the separated samples onto PVDF film. The PVDF membrane was washed with double-distilled water and then blocked in TBST (Thermo Scientific, 28360) buffer containing 5% non-fat milk, for 2 hours. Blocked membrane was rinsed with tris-buffered saline tween-20 (Thermo Scientific, 28360, TBST) three times, 10 minutes each. Membrane was then incubated with 1:1000 diluted KRAS primary antibody (CST, cat #14429S) overnight at 4° C. Membrane was rinsed in a way described previously followed by 1 hour incubation of secondary antibody at room temperature. After washing the film for three times with TBST, ECL color developing solution was applied, and image was captured with Biorad Chemi Doc gel imager. The band gray value was quantified (Image Lab), and protein degradation level was calculated according to the following formula:
Level of RAS protein expression=(RAS-compound/GAPDH)/(RAS-DMSO/GAPDH)
Level of degradation (%)=(1−Rate of RAS protein expression)×100
Symbols of −, +, ++, +++ indicate that the degradation level of Ras protein induced by testing compounds are […], 11 to 30%, 31 to 60% and greater than 60%, respectively.
Half-maximum degradation concentrations (DC50s) of testing compounds were calculated using GraphPad Prism and their values were shown in Table 6. Symbols of […] represent DC50s equal or less than 10 nM, 11-50 nM, 51-100 nM, and 101-200 nM, respectively.

Each structure is given as a SMILES string.

T1 sequence (P01116 1-188 isoform P01116-2 G12D): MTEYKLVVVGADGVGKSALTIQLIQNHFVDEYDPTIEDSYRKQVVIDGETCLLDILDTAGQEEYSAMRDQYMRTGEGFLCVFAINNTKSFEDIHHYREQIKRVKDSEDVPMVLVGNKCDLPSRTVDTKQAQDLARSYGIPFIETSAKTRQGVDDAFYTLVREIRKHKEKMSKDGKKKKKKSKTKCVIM

`C#Cc1c(F)ccc2cc(O)cc(-c3ncc4c(N5CC6CCC(C5)N6)nc(OCC5(CN6CCC(CN7CCC(c8cccc(N9CC(=O)NC9=O)c8)CC7)CC6)CC5)nc4c3F)c12` [Compound 7a]: the inhibition at 0.001 µM was in the range of 11 to 30%.

For `C#Cc1c(F)ccc2cc(O)cc(-c3ncc4c(N5CC6CCC(C5)N6)nc(OC5CCN(CC(=O)N6CCC(c7ccc8c(C9CCC(=O)NC9=O)nn(C)c8c7)CC6)CC5)nc4c3F)c12` (stereo not shown) [Compound 69], the inhibition at 0.1 µM is over 60% and the inhibition at 1 µM was over 60%. Consider `C#Cc1c(F)ccc2cc(O)cc(-c3ncc4c(N5CC6CCC(C5)N6)nc(OCC5CCN(CCCCCCCCCCC(=O)N[C@H](C(=O)N6C[C@H](O)C[C@H]6C(=O)N[C@@H](C)c6ccc(-c7scnc7C)cc6)C(C)(C)C)C5)nc4c3F)c12` (stereo partly shown) [Compound 56], for which the DC50 fell in the range of 11 to 50 nM.

Regarding `C#Cc1c(F)ccc2cc(O)cc(-c3ncc4c(N5CC6CCC(C5)N6)nc(OCC5(CN6CCC7(CC6)CC(N6CCC(c8ccc(NC9%10CC(C9)C(=O)NC%10=O)cc8F)CC6)C7)CC5)nc4c3F)c12` [Compound 36a], the inhibition at 0.005 µM was over 60%, the inhibition at 0.05 µM is over 60% and the DC50 is under 10 nM. In the case of `C#Cc1c(F)ccc2cc(O)cc(-c3ncc4c(N5CC6CCC(C5)N6)nc(OCC5(CN6CCC7(CC6)CC(N6CCC(c8ccc(CN9CCC(=O)NC9=O)cc8)CC6)C7)CC5)nc4c3F)c12` [Compound 38a], the inhibition at 0.005 µM fell in the range of 11 to 30%. For `C#Cc1c(F)ccc2cc(O)cc(-c3ncc4c(N5CC6CCC(C5)N6)nc(OCC5(CN6CCC7(CC6)CC(c6cc8c(cc6F)c(N6CCC(=O)NC6=O)nn8C)C7)CC5)nc4c3F)c12` [Compound 39a], the inhibition at 0.005 µM is over 60% and the DC50 was under 10 nM. Turning to `C#Cc1c(F)ccc2cc(O)cc(-c3ncc4c(N5CC6CCC(C5)N6)nc(OCC5(CN6CCC(CN7CCC(c8cccc(N9CCC(=O)NC9=O)c8C)CC7)CC6)CC5)nc4c3F)c12` [Compound 8a], the inhibition at 0.001 µM lay within 11 to 30%. With `C#Cc1c(F)ccc2cc(O)cc(-c3ncc4c(N5CC6CCC(C5)N6)nc(OC5CCN(CCCCCCCCCCC(=O)N[C@H](C(=O)N6C[C@H](O)C[C@H]6C(=O)N[C@@H](C)c6ccc(-c7scnc7C)cc6)C(C)(C)C)C5)nc4c3F)c12` (stereo partly shown) [Compound 55], the DC50 lay within 51 to 100 nM. As for `C#Cc1c(F)ccc2cc(O)cc(-c3ncc4c(N5CC6CCC(C5)N6)nc(OC5CCN(CC(=O)N6CCC7(CC6)CC(N6CCC(c8ccc9c(C%10CCC(=O)NC%10=O)nn(C)c9c8)CC6)C7)C5)nc4c3F)c12` (stereo not shown) [Compound 101], the inhibition at 0.1 µM lay within 11 to 30%. Take `C#Cc1c(F)ccc2cc(O)cc(-c3ncc4c(N5CC6CCC(C5)N6)nc(OCCCN5CCN(C(=O)CN6CCC(c7ccc8c(C9CCC(=O)NC9=O)nn(C)c8c7)CC6)CC5)nc4c3F)c12` (stereo not shown) [Compound 33]: the DC50 was 11 to 50 nM. For the compound `Nc1cc(Cl)c(C(F)(F)F)c(-c2ncc3c(N4CC5CCC(C4)N5)nc(OCC4(CN5CCC6(CC5)CC(N5CCC(c7cccc(N8CCC(=O)NC8=O)c7)CC5)C6)CC4)nc3c2F)c1` [Compound 19a], the inhibition at 0.005 µM lay within 11 to 30% and the inhibition at 0.05 µM lay in the range of 11 to 30%. In the case of `Cc1ccc2[nH]ncc2c1-c1ncc2c(N3CC4CCC(C3)N4)nc(OCC3(CN4CCC5(CC4)CC(N4CCC(c6ccc7c8c(cccc68)C(=O)N7C6CCC(=O)NC6=O)CC4)C5)CC3)nc2c1F` (stereo not shown) [Compound 18a], the inhibition at 0.005 µM is 11 to 30%.

On to `C#Cc1c(F)ccc2cc(O)cc(-c3ncc4c(N5CC6CCC(C5)N6)nc(OCC5(CN6CCC(N7CC(N8CCC(c9ccc%10c(C%11CCC(=O)NC%11=O)nn(C)c%10c9)CC8)C7)CC6)CC5)nc4c3F)c12` (stereo not shown) [Compound 34a], for which the inhibition at 0.005 µM fell in the range of 31 to 60% and the inhibition at 0.05 µM is over 60%.

For the compound `C#Cc1c(F)ccc2cc(O)cc(-c3ncc4c(N5CC6CCC(C5)N6)nc(OCC5(CN6CCC(c7ccc8c(C9CCC(=O)NC9=O)nn(C)c8c7)CC6)CC5)nc4c3F)c12` (stereo not shown) [Compound 99], the inhibition at 0.1 µM is over 60%. For `C#Cc1c(F)ccc2cc(O)cc(-c3ncc4c(N5CC6CCC(C5)N6)nc(OC5CCN(CC6CCN(C(=O)C[C@H](NC(=O)[C@@H]7C[C@@H](O)CN7C(=O)[C@@H](NC(=O)C7(F)CC7)C(C)(C)C)c7ccc(-c8scnc8C)cc7)CC6)CC5)nc4c3F)c12` [Compound 70], the inhibition at 0.1 µM fell in the range of 11 to 30% and the inhibition at 1 µM was over 60%. Consider `C#Cc1c(F)ccc2cc(O)cc(-c3ncc4c(N5CC6CCC(C5)N6)nc(OCCCN5CCN(CCC(=O)N6CCC(c7ccc8c(C9CCC(=O)NC9=O)nn(C)c8c7)CC6)CC5)nc4c3F)c12` (stereo not shown) [Compound 74], for which the inhibition at 0.1 µM lay within 31 to 60%.

Turning to `C#Cc1c(F)ccc2cccc(-c3ncc4c(N5CC6CCC(C5)N6)nc(OCC5(CN6CCC7(CC6)CC(N6CCC(c8ccc(NC9CCC(=O)NC9=O)cc8F)CC6)C7)CC5)nc4c3F)c12` (stereo not shown) [Compound 22a], the inhibition at 0.005 µM fell in the range of 11 to 30% and the inhibition at 0.05 µM lay in the range of 31 to 60%. On to `C#Cc1c(F)ccc2cc(O)cc(-c3ncc4c(N5CC6CCC(C5)N6)nc(OC5CCN(CCCCCCCCCCC(=O)N[C@H](C(=O)N6C[C@H](O)C[C@H]6C(=O)NCc6ccc(-c7scnc7C)cc6)C(C)(C)C)CC5)nc4c3F)c12` [Compound 43], for which the DC50 was 51 to 100 nM. Consider `C#Cc1c(F)ccc2cc(O)cc(-c3ncc4c(N5CC6CCC(C5)N6)nc(OCC5(CN6CCC7(CC6)CC(N6CCC(c8cc9c(cc8F)c(C8CCC(=O)NC8=O)nn9C)CC6)C7)CC5)nc4c3F)c12` (stereo not shown) [Compound 41a], for which the inhibition at 0.005 µM is over 60% and the inhibition at 0.05 µM was over 60%. For the compound `C#Cc1c(F)ccc2cc(O)cc(-c3ncc4c(N5CC6CCC(C5)N6)nc(N5CC(N6CCN(C(=O)CN7CCC(c8ccc9c(C%10CCC(=O)NC%10=O)nn(C)c9c8)CC7)CC6)C5)nc4c3F)c12` (stereo not shown) [Compound 120], the inhibition at 0.1 µM fell in the range of 11 to 30%. Consider `C#Cc1c(F)ccc2cc(O)cc(-c3ncc4c(N5CC6CCC(C5)N6)nc(OC5CCN(CCCCCCCCCCC(=O)N[C@H](C(=O)N6C[C@H](O)C[C@H]6C(=O)N[C@@H](C)c6ccc(-c7scnc7C)cc6)C(C)(C)C)CC5)nc4c3F)c12` [Compound 45], for which the DC50 lay in the range of 11 to 50 nM.

`C#Cc1c(F)ccc2cc(O)cc(-c3ncc4c(N5CC6CCC(C5)N6)nc(OCC5(CN6CC7(CC(CN8CCC(c9ccc%10c(C%11CCC(=O)NC%11=O)nn(C)c%10c9)CC8)C7)C6)CC5)nc4c3F)c12` (stereo not shown) [Compound 25a]: the inhibition at 0.005 µM was 31 to 60% and the inhibition at 0.05 µM fell in the range of 31 to 60%. On to `C#Cc1c(F)ccc2cc(O)cc(-c3ncc4c(N5CC6CCC(C5)N6)nc(OCCCN5CCC(C(=O)N6CCN(C(=O)C[C@H](NC(=O)[C@@H]7C[C@@H](O)CN7C(=O)[C@@H](NC(=O)C7(F)CC7)C(C)(C)C)c7ccc(-c8scnc8C)cc7)CC6)CC5)nc4c3F)c12` [Compound 65], for which the inhibition at 1 µM fell in the range of 11 to 30%. Turning to `C#Cc1c(F)ccc2cc(O)cc(-c3ncc4c(N5CC6CCC(C5)N6)nc(OCC5CCN(CCCCCCCCCCC(=O)N6CCC(c7ccc8c(C9CCC(=O)NC9=O)nn(C)c8c7)CC6)C5)nc4c3F)c12` (stereo not shown) [Compound 57], the DC50 is under 10 nM. Take `C#Cc1c(F)ccc2cc(O)cc(-c3ncc4c(N5CC6CCC(C5)N6)nc(OCC5(CN6CCC(C(=O)N7CCC(c8ccc9c(C%10CCC(=O)NC%10=O)nn(C)c9c8)CC7)CC6)CC5)nc4c3F)c12` (stereo not shown) [Compound 100]: the inhibition at 0.1 µM was over 60%. For `C#Cc1c(F)ccc2cc(O)cc(-c3ncc4c(N5CC6CCC(C5)N6)nc(OCC5(CN6CC7(CC(C(=O)N8CCC(c9ccc%10c(C%11CCC(=O)NC%11=O)nn(C)c%10c9)CC8)C7)C6)CC5)nc4c3F)c12` (stereo not shown) [Compound 27a], the inhibition at 0.005 µM was 11 to 30% and the inhibition at 0.05 µM was 11 to 30%.

A word on the DC50: it is the midpoint of the concentration-degradation curve.
